Assay results reported in patent US11877990B1, “Agmatine compositions for treatment of osteoarthritis” (priority 2022, dated 2024).

Columns and labels:
[1] = tested on: bilateral knee osteoarthritis; assay: Agmatine Administration Case 1: self-treatment and self-rating of knee osteoarthritis symptoms (WOMAC Index, VAS); assay type: in vivo, human; settings: for VAS Score / WOMAC (% Total Score): treatment duration 12-14 months
Text: Two study participants, each suffering from bilateral knee osteoarthritis, were consecutively self-treated as shown in the following Table 1: Treatment started with acetaminophen (as TYLENOL®, considered standard drug treatment) used as a rescue medication for the duration of their symptoms, 12 or 14 months as needed, followed by a 12-week treatment period of acetaminophen plus agmatine (taken as the G-AGMATINE® brand of agmatine sulfate). The participants self-rated their OA symptoms according to the WOMAC (Western Ontario and McMaster Universities Osteoarthritis) Index and according to the Visual Analog (pain) Scale (VAS). They had bilateral symptoms of mild-to-moderate chronic, frequent knee pain typical of knee OA according to WOMAC, score range of >25 and <100. Table 1 presents a summary of the participants' characteristics and treatment assessment at the indicated follow-up times. For the entire acetaminophen-only treatment, the dosage was 500 milligrams per caplet, and the frequency was two caplets every six hours, as needed (i.e., 1000 mg per six-hour period). For the acetaminophen plus agmatine regimen, the participants' initial dosage of acetaminophen was 500 milligrams per caplet with an initial dosage of agmatine of 450 milligrams per capsule. While the frequency of acetaminophen dosage for both participants remained two caplets every six hours, the frequency of the agmatine capsules was six capsules daily (i.e., 2,700 mg per day). […] Participant 1 eliminated acetaminophen after six weeks, and participant 2 eliminated acetaminophen after eight weeks of treatment. Thereafter, the participants were taking only agmatine and reduced the quantity of agmatine by one third (i.e., a regimen of 1,800 mg per day).

[2] = tested on: bilateral knee osteoarthritis; assay: Agmatine Administration Case 2: consecutive self-treatment with acetaminophen, GCM formulation and agmatine (VAS, WOMAC); assay type: in vivo, human; settings: agmatine taken with acetaminophen and with acetaminophen/GCM formulation
Text: In a second study, four participants had bilateral symptoms of mild-to-moderate chronic, frequent knee pain typical of knee osteoarthritis according to a WOMAC Index score range of >25 and <100. They are compared in Table 2. Participants began taking acetaminophen (as TYLENOL®) as needed over the course of the symptom duration: Referring to FIG. 1, the four participants self-treated consecutively as follows: starting with Acetaminophen (as TYLENOL®, considered a standard drug treatment) used as a rescue medication for the duration of their symptoms for 4 to 6 months, followed by a sixty-day treatment period with acetaminophen plus a GCM formulation (i.e., glucosamine HCl, chondroitin sulfate, and methylsulfonylmethane (MSM)). The GCM formulation was followed by sixty-day period using a combination comprising acetaminophen, the GCM formulation, and agmatine (taken as the G-AGMATINE® brand of agmatine sulfate). […] Referring to FIG. 3, changes in the WOMAC ratings are shown, expressed as a percentage of total scores, at the specified time intervals after initiation of each of the acetaminophen (labeled “acet in the figure), acetaminophen and GCM formulation, and the combination acetaminophen/GCM formulation/agmatine treatment regimens. […]

[3] = humans, ingested; cited from earlier work

Row | Structure (SMILES) | Effect on OA symptoms (in words) ([1]; agmatine taken with acetaminophen, two participants) | Effect on improving OA symptoms (in words) [2] | apparent blood half-life [3] | VAS Score ([1]; Participant #1, acetaminophen as needed) | WOMAC (% Total Score) ([1]; Participant #1, acetaminophen as needed (entry two)) | WOMAC (% Total Score) ([1]; Participant #2 (person one), acetaminophen as needed) | VAS Score ([1]; Participant #2, acetaminophen as needed)
1 | N=C(N)NCCCCN [Agmatine] | dramatic improvement in OA symptoms | unexpected synergistic effect | about two | – | – | – | –
2 | CC(=O)Nc1ccc(O)cc1 [Acetaminophen] | – | – | – | 6.0 | 83.3 | 85.4 | 6.5
